Reference: US20180064662A1 (THE GENERAL HOSPITAL CORPORATION, priority 2015, published 2018)

Key:
MCA-IV tumors = test: MCA-IV breast cancer in lean and obese mice, anti-VEGF therapy; type: in vivo, mouse
macrophage viability = test: MTT viability assay on macrophages; type: cell-based, mouse; details: 48 h
human pancreatic cancers = test: HA and collagen-I staining of human PDAC surgical samples, patients with or without metformin; type: in vivo
Text: Human samples of pancreatic cancer were obtained from the Massachusetts General Hospital tissue repository. Written informed consent from the donor or the next of kin was obtained for the use of these samples for research purposes. Tumors selected received no prior chemotherapy or radiation therapy before the surgical specimen was collected at the time of tumor resection. A total of 28 samples were randomly selected from this subset of samples. Body mass index was obtained for the respective sample. […] Paraffin sections were stained for collagen-I and HA as described below. Images were acquired using confocal microscopy and quantified using Matlab. Data were analyzed anonymously.
For analysis of frozen sections of mouse tumor tissues, the tumors were excised and frozen in optimal cutting temperature compound (Tissue-Tek). Transverse tumor sections, 10 μm thick, were immunostained with specific antibodies. To obtain mosaic images of tumor sections, an Olympus FV1000 confocal laser-scanning microscope was used. A 10× air objective acquired 1260-μm square tiles, and an automated stage scanned throughout the entire cross-section of tumor tissue. The imaged tiles were stitched into a final mosaic image using Olympus software. Antigen expression was quantified by measuring the area occupied by the stain of interest normalized by the area of DAPI-stained nuclei (i.e., unit less), and analyzed using a custom algorithm in MATLAB (The MathWorks). Identical settings and thresholds for analysis were used for all tumors. Antibodies used for immunofluorescence were the following: Collagen-I [LF-68 antibody, 1:50 dilution, provided by Dr Larry Fisher (NIDCR)]; Hyluronan (biotinylated hyaluronan proteoglycan fragment, 385911, Calbiochem, 1:200 dilution); αSMA (C6198 antibody, Sigma, 1:500 dilution); and F4/80 (MCA497A488 antibody, ABDserotec, 1:200 dilution). Cy3-, Cy5- or FITC-conjugated secondary antibodies were used for the detection of signals by confocal microscopy. Slides were counterstained with DAPI for nuclear staining.

[1] = test system: RAW 264.7 (mouse leukemic monocyte-macrophages); test: RAW 264.7 macrophages treated with metformin in vitro (qPCR, Western blot); type: cell-based
Description: Following treatment, cells were collected for RNA and protein extraction in order to perform subsequent analysis of gene expression of cytokines and polarization markers, and for analysis of signaling and metabolic pathways. […] Cells were collected for protein extraction for analysis of the activation of fibrosis-related pathways. […] The cells were fixed with 4% paraformaldehyde and blocked with 5% normal donkey serum for 1 h. They were incubated with the designated primary antibodies overnight at 4° C. then for 2 h with the appropriate secondary antibodies at RT. PBS was used for all washes and the stained samples were mounted with Prolong Gold with DAPI. Images were acquired using a confocal microscope. The antibodies used and image acquisition settings are described below. Both cell types were grown in Dulbecco's modified Eagle's medium (Sigma, St. Louis, Mo.) supplemented with 5% (v/v) heat inactivated fetal bovine serum (FBS; Sigma), 100 units/ml penicillin and streptomycin. Cells were cultured at 37° C. in a humidified atmosphere including 5% CO2.
Immediately following excision, tumor tissue was snap frozen and stored in liquid nitrogen. Total RNA was extracted and relative gene expression for macrophage M1/M2 markers was determined using a Sybr-green based standard protocol. In addition, total RNA was extracted and relative gene expression was determined using RT2 Profiler PCR Arrays system (Qiagen) on a Stratagene Mx3000P QPCR System using pre-made pathway-focused arrays (“Fibrosis”-Cat. Number: PAMM011Z; “Epithelial to Mesenchymal Transition (EMT)”-Cat. Number: PAMM090Z; “TGF-β signaling targets”-PAMM235Z; “Extracellular Matrix & Adhesion Molecules”-Cat. Number: PAMM013Z; and “Common cytokines ”-Cat. Number: PAMM021Z).
Each tumor sample was homogenized directly in lysis buffer for protein extraction. 20 ug of denatured protein per sample was loaded on 7%, 10% and 12% SDS-polyacrylamide gels. Antibodies used: phospho-p38 MAPKT^180/Y182 and p38; phospho-JNK (SAPK/JNK)^Thr183/Tyr185 and JNK; phospho-AKT^Ser473 and AKT, phospho-ERK(p44/42 MAPK)^T202/Y204 and ERK; phospho-NF-κB^Ser536 and NK-κB; p65^Ser536; phospho-Smad2^Ser465/467 and Smad2; phospho-IGF-I Receptor β^Tyr1135 and IGF; Phospho-IRS-1^Ser612 and IRS; IR; phpspho-stat3^Tyr705 and stat3; Phospho-AMPKα^Thr172 and Ampkα; phospho-Ampkβ^Ser108 and Ampk; phospho-ACC^Ser79 and ACC; Phospho-PDGF Receptor β^Tyr751 and PDGF Receptor β and snail, c-cadherin and vimentin, TGF-β, β-catenin, twist, LC3B. […] Quantification of protein expression relative to total receptor or β-actin was obtained using Image J software.

pancreatic cancer = details: newly diagnosed pancreatic cancer cases, diabetic patients; cited from earlier work

Compound: CN(C)C(=N)N=C(N)N [metformin, 3-(diaminomethylidene)-1,1-dimethylguanidine]
- FGF-2 gene and protein expression, downstream signaling (MCA-IV tumors; obese animals treated with anti-VEGF): decreases
- vessel density (MCA-IV tumors; obese animals treated with anti-VEGF, metformin): decreases
- tumor growth response to anti-VEGF (MCA-IV tumors; obese setting, metformin): improved tumor growth response to anti-VEGF
- doses at which metformin reduces macrophage viability (macrophage viability): > 0.2 mM
- doses at which metformin reduces macrophage viability (macrophage viability; listed as Metformin): ≥ 0.4 mM
- collagen-I expression (human pancreatic cancers; either body weight group): no impact
- levels of HA lower than in patients not taking metformin (human pancreatic cancers; overweight or obese patients, chemo/radiotherapy naive PDAC surgical samples): 30%
- HA levels (human pancreatic cancers; patients of normal weight): no difference
- activation of AMPKα and ACC in macrophages ([1]; ACC evident only in serum added media): activation of AMPKα
- activation of STAT3, JNK, AKT and p38 in macrophages ([1]; concentrations lower than 0.2 mM, Western blot): reduced activation
- gene expression of M2 markers such as Arg-1 and IL-10 ([1]; metformin 0.05 mM, 48 h): reduced M2 markers
- gene expression of M1 and M2 markers ([1]; metformin at doses higher than 0.2 mM): reduced both M1 and M2 markers
- reduced risk of death (pancreatic cancer): 32%
